According to ChEMBL document CHEMBL1201862, “PubChem BioAssay data set” (2004):
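The compound was tested at five concentrations on cells cultured in 96-well plates, with a 48-hour exposure period. GI50 is the concentration that inhibits growth by half.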 Calls of active or inactive are those of the source. Cut-off read from the data, not from the text of the source: active = GI50 up to about 1.1 µM and inactive = higher.

What was measured:
Test in all cases: DTP human tumour cell line panel, 48 h
RXF 393 = test system: RXF 393
HL-60 = test system: HL-60
SK-MEL-5 = test system: SK-MEL-5
CCRF-CEM = test system: CCRF-CEM
NCI-H23 = test system: NCI-H23
COLO 205 = test system: COLO 205
HCC 2998 = test system: HCC 2998
MOLT-4 = test system: MOLT-4
DMS-273 = test system: DMS-273
HT-29 = test system: HT-29
HCT-15 = test system: HCT-15
ACHN = test system: ACHN
SNB-75 = test system: SNB-75
HOP-92 = test system: HOP-92
786-0 = test system: 786-0
K562 = test system: K562
EKVX = test system: EKVX

SMILES	GI50 (RXF 393)	GI50 (HL-60)	GI50 (SK-MEL-5)	GI50 (CCRF-CEM)	GI50 (NCI-H23)	GI50 (COLO 205)	GI50 (HCC 2998)	GI50 (MOLT-4)	GI50 (DMS-273)	GI50 (HT-29)	GI50 (HCT-15)	GI50 (ACHN)	GI50 (SNB-75)	GI50 (HOP-92)	GI50 (786-0)	GI50 (K562)	GI50 (EKVX)
CN1NC(c2ccccc2)=C(C#N)C(=O)CC1c1ccc(F)cc1 (configuration not stated)	> 100 µM (inactive)	> 100 µM (inactive)	> 100 µM (inactive)	> 100 µM (inactive)	> 100 µM (inactive)	> 100 µM (inactive)	> 100 µM (inactive)	> 100 µM (inactive)	> 100 µM (inactive)	> 100 µM (inactive)	> 100 µM	> 100 µM (inactive)	41.3 µM (inactive)	> 100 µM (inactive)			
NC1CCCCC1.O=C(O)C1(P(=O)(O)O)CC1	> 100 µM (inactive)	> 100 µM (inactive)	> 100 µM (inactive)	> 100 µM (inactive)	> 100 µM (inactive)	> 100 µM (inactive)	> 100 µM (inactive)	> 100 µM (inactive)	> 100 µM (inactive)		> 100 µM	> 100 µM (inactive)	92.3 µM (inactive)		> 100 µM (inactive)	> 100 µM (inactive)	> 100 µM (inactive)
CC(=O)OC1COC(n2c(=S)n(-c3ccc(C)cc3)c(=O)c3ccccc32)C(OC(C)=O)C1OC(C)=O (configuration not stated)	67.3 µM (inactive)		> 100 µM (inactive)		> 100 µM (inactive)	> 100 µM (inactive)	> 100 µM (inactive)	> 100 µM (inactive)	> 100 µM (inactive)	> 100 µM (inactive)	> 100 µM	> 100 µM (inactive)	63.2 µM (inactive)	45.8 µM (inactive)	> 100 µM (inactive)		> 100 µM (inactive)
O=S(=O)(N/N=C/c1cccc(/C=N/NS(=O)(=O)c2ccccc2)c1)c1ccccc1	51.6 µM (inactive)	63.4 µM (inactive)	39.2 µM (inactive)	76.4 µM (inactive)	87.1 µM (inactive)	38.3 µM (inactive)	> 100 µM (inactive)	84.5 µM (inactive)	> 100 µM (inactive)	86.1 µM (inactive)	80.5 µM	68.7 µM (inactive)	> 100 µM (inactive)	38.9 µM (inactive)	> 100 µM (inactive)	60.4 µM (inactive)	77.6 µM (inactive)
Cc1[nH]c2ccccc2c1C1Cc2ccccc2N1C(=O)/C(Cl)=C/c1ccccc1 (configuration not stated)	7.83 µM (inactive)	98.2 µM (inactive)	> 100 µM (inactive)	> 73.1 µM (inactive)	48.4 µM (inactive)	> 100 µM (inactive)	> 100 µM (inactive)	15.2 µM (inactive)	> 100 µM (inactive)	> 100 µM (inactive)	> 100 µM	98.9 µM (inactive)	4.65 µM (inactive)	> 100 µM (inactive)	> 100 µM (inactive)	70.3 µM (inactive)	> 48.9 µM (inactive)
COc1cc(/C=C2/C(=O)N(C(=O)OCC(C)C)C(Cc3cc(OC)c(OC)c(C)c3OC)C(=O)N2Cc2ccccc2)c(OC)c(C)c1OC (configuration not stated)	> 100 µM (inactive)	8.2 µM (inactive)	74.6 µM (inactive)	21.3 µM (inactive)	> 100 µM (inactive)	11.2 µM (inactive)	> 100 µM (inactive)	7.35 µM (inactive)	> 100 µM (inactive)	> 100 µM (inactive)		> 100 µM (inactive)	> 100 µM (inactive)	4.74 µM (inactive)	> 100 µM (inactive)	19.2 µM (inactive)	72.1 µM (inactive)
S=C1ON=C(c2ccccc2)/C1=C/Nc1ccccc1	94.8 µM (inactive)	> 100 µM (inactive)	> 100 µM (inactive)	> 100 µM (inactive)	> 100 µM (inactive)	> 100 µM (inactive)	> 100 µM (inactive)	> 100 µM (inactive)	> 100 µM (inactive)	> 100 µM (inactive)	78.9 µM	47.1 µM (inactive)	> 100 µM (inactive)		> 100 µM (inactive)	9.98 µM (inactive)	> 100 µM (inactive)
O=c1c(C(c2ccc([N+](=O)[O-])cc2)c2c(O)c3ccccc3n(-c3ccccc3)c2=O)c(O)c2ccccc2n1-c1ccccc1	14.4 µM (inactive)		11.4 µM (inactive)	1.51 µM (inactive)	11.2 µM (inactive)	23.2 µM (inactive)	12.4 µM (inactive)	2.7 µM (inactive)	22.9 µM (inactive)		10.1 µM	13.9 µM (inactive)		9.18 µM (inactive)	11.6 µM (inactive)	16.6 µM (inactive)	24.5 µM (inactive)
CC1(C)CCc2cc3c(-c4ccccc4)cc(=O)oc3cc2O1		> 100 µM (inactive)	> 100 µM (inactive)	> 100 µM (inactive)	> 100 µM (inactive)	> 100 µM (inactive)		> 100 µM (inactive)	> 100 µM (inactive)	> 100 µM (inactive)	> 100 µM	> 100 µM (inactive)	13.7 µM (inactive)	21.1 µM (inactive)		> 100 µM (inactive)	> 100 µM (inactive)
NC(=O)C(=O)C1C(=O)N(c2ccccc2)N=C1N (configuration not stated)		> 100 µM (inactive)			> 100 µM (inactive)	> 100 µM (inactive)	> 100 µM (inactive)	> 100 µM (inactive)	> 100 µM (inactive)	> 100 µM (inactive)	> 100 µM	49.4 µM (inactive)	> 100 µM (inactive)	> 100 µM (inactive)	> 100 µM (inactive)	> 100 µM (inactive)	
CC(C)C(C(=O)O)N(CC1(O)OCC(O)C(O)C1O)N=O (configuration not stated)	> 100 µM (inactive)	> 100 µM (inactive)	> 100 µM (inactive)	> 100 µM (inactive)	> 100 µM (inactive)	> 100 µM (inactive)	> 100 µM (inactive)	> 100 µM (inactive)	> 100 µM (inactive)	> 100 µM (inactive)		> 100 µM (inactive)	> 100 µM (inactive)	> 100 µM (inactive)	> 100 µM (inactive)	> 100 µM (inactive)	> 100 µM (inactive)
CC(=O)OCCOCNC(=S)N/N=C/c1cc(Br)cs1	> 100 µM (inactive)	> 100 µM (inactive)	> 100 µM (inactive)	> 100 µM (inactive)	> 100 µM (inactive)	> 100 µM (inactive)	> 100 µM (inactive)	> 100 µM (inactive)	> 100 µM (inactive)	> 100 µM (inactive)	> 100 µM	> 100 µM (inactive)	> 100 µM (inactive)		> 100 µM (inactive)	> 100 µM (inactive)	> 100 µM (inactive)
Cc1cc(N(CCC#N)S(=O)(=O)c2ccccc2)ccc1C=O	> 100 µM (inactive)	> 100 µM (inactive)	> 100 µM (inactive)	> 100 µM (inactive)	> 100 µM (inactive)	> 100 µM (inactive)	> 100 µM (inactive)	> 100 µM (inactive)	> 100 µM (inactive)	> 100 µM (inactive)	> 100 µM	> 100 µM (inactive)	> 100 µM (inactive)		> 100 µM (inactive)	> 100 µM (inactive)	> 100 µM (inactive)
CC(C)(C)NCC(COc1ccc([N+](=O)[O-])cc1)OP(c1ccccc1)c1ccccc1 (configuration not stated)	30.3 µM (inactive)	19.7 µM (inactive)	18.8 µM (inactive)	27.8 µM (inactive)	44.9 µM (inactive)	31.4 µM (inactive)	42.4 µM (inactive)	18.9 µM (inactive)	29.8 µM (inactive)	27.7 µM (inactive)	37.8 µM	38.7 µM (inactive)	33.7 µM (inactive)		29 µM (inactive)	32.7 µM (inactive)	53.1 µM (inactive)
CN(C)CC1(C)CC/C(=C\c2ccc3c(c2)OCO3)C1=O (configuration not stated)	> 100 µM (inactive)		> 100 µM (inactive)	59.4 µM (inactive)	> 100 µM (inactive)	> 100 µM (inactive)	> 100 µM (inactive)	96.4 µM (inactive)	> 100 µM (inactive)	> 100 µM (inactive)	> 100 µM	> 100 µM (inactive)	> 100 µM (inactive)	> 100 µM (inactive)	> 100 µM (inactive)	53.6 µM (inactive)	
Clc1ccc2c(c1)-c1c3c(nn1-c1ccccc1)-c1ccccc1SC3O2 (configuration not stated)	> 100 µM (inactive)	79.4 µM (inactive)	> 100 µM (inactive)	44.9 µM (inactive)	> 100 µM (inactive)	> 100 µM (inactive)	> 100 µM (inactive)	> 100 µM (inactive)	> 100 µM (inactive)	> 100 µM (inactive)		> 100 µM (inactive)	82.6 µM (inactive)	35.7 µM (inactive)	> 100 µM (inactive)	75.3 µM (inactive)	> 100 µM (inactive)
NC(N)=NN/C(=C1/N=c2ccc([N+](=O)[O-])cc2=NC1=O)C(O)c1ccco1 (configuration not stated)	> 100 µM (inactive)	35.9 µM (inactive)	> 100 µM (inactive)	67.1 µM (inactive)	> 100 µM (inactive)	> 100 µM (inactive)	> 100 µM (inactive)	> 100 µM (inactive)	> 100 µM (inactive)	> 100 µM (inactive)	> 100 µM	> 100 µM (inactive)	> 100 µM (inactive)	> 100 µM (inactive)	> 100 µM (inactive)	54.3 µM (inactive)	> 100 µM (inactive)
